Measured values: patent US20100144626A1, “Treatment of Multi-Drug Resistant Bacterial Infections” (priority 2006, published 2010)
Values after ≈ are worked out from the molar mass of the structure shown.

Legend:
[1] = tested on: Enterococcus faecalis (VRE) E8 VanA; experiment: MIC, agar dilution (BSAC guidelines); format: cell-based; conditions: Table 2, E. faecalis (VRE) E8 VanA, read-out: Minimum inhibitory concentration (MIC)
Procedure: (§1) In example experiments miconazole nitrate, was dissolved in methanol and econazole nitrate and clotrimazole were dissolved in DMSO and methanol respectively. Other solvents that may be used include caster oil, pyridine, DMSO and 0.9% saline. For IV administration agents may be solubilised in polyethoxylated caster oil, or cyclodextrins such as sulfobutylether7-βcyclodextrin or hydroxypropyl-β-cyclodextrin and lactic acid. Minimum inhibitory concentrations (MICs) of a range of clinical and control bacterial organisms were measured according to BSAC (British Society for Antimicrobial Chemotherapy) guidelines, described briefly as follows;
(§2) Preparation of Agar Plates and Broths
(§3) Stock solutions of each agent were prepared using the formula:
(§4) Where P=μg of active compound per mg (μg/mg) • V=volume required (mL) • C=final concentration of solution (mg/L) • W=weight of agent (mg) to be dissolved in volume V (mL)
(§5) Stock solutions were prepared at concentrations of 1000 mg/L and 100 mg/L. The appropriate amounts of each stock solution were added to separate Petri dishes give the following final concentrations (after the addition of 20 mL molten agar): 128, 64, 32, 16, 8, 4, 2, 1, 0.5, 0.25, 0.12, 0.06, 0.03, 0.015 mg/L.
(§6) Volumes (20 mL) of cooled molten IST agar (oxoid) was added to each Petri dish and mixed by swirling.
(§7) After drying, the plates were stored at 4° C. and protected from light. Plates were used on the day of preparation.
(§8) The test organisms were grown overnight in 5 mL IST broth. Using a dilution in 0.9% saline of 1:500 for Gram-negative organisms and 1:100 for Gram-positive organisms, the appropriate agar plates were inoculated using a multipoint inoculator.
(§9) Plates were incubated at 37° C. in air for 18-20 hours.
(§10) The MIC is the minimum amount of an antibiotic at which there is no visible growth of bacteria. Tiny single colonies or faint hazes were not counted as growth.

[2] = tested on: Enterococcus faecium (VRE) E15 VanA ATCC 4147; experiment: MIC, agar dilution (BSAC guidelines); format: cell-based; conditions: Table 2, E. faecium (VRE) E15 VanA ATCC 4147, read-out: Minimum inhibitory concentration (MIC)
Procedure: as §1, §2, §3, §4, §5, §6, §7, §8, §9, §10

[3] = tested on: Enterococcus faecium (VRE) E19 UAA/522 VanB; experiment: MIC, agar dilution (BSAC guidelines); format: cell-based; conditions: Table 2, E. faecium (VRE) E19 UAA/522 VanB, read-out: Minimum inhibitory concentration (MIC)
Procedure: as §1, §2, §3, §4, §5, §6, §7, §8, §9, §10

[4] = tested on: Enterococcus faecium (VRE) NCTC 7171; experiment: MIC, agar dilution (BSAC guidelines); format: cell-based; conditions: Table 2, E. faecium (VRE) NCTC 7171, read-out: Minimum inhibitory concentration (MIC)
Procedure: as §1, §2, §3, §4, §5, §6, §7, §8, §9, §10

[5] = tested on: Enterococcus faecium (VRE) VanR B145344C LFE; experiment: MIC, agar dilution (BSAC guidelines); format: cell-based; conditions: Table 2, E. faecium (VRE) VanR B145344C LFE, read-out: Minimum inhibitory concentration (MIC)
Procedure: as §1, §2, §3, §4, §5, §6, §7, §8, §9, §10

[6] = tested on: Escherichia coli NCTC 10418; experiment: MIC, agar dilution (BSAC guidelines); format: cell-based; conditions: NCTC10418, Table 2, E. coli NCTC 10418, read-out: Minimum inhibitory concentration (MIC)
Procedure: as §1, §2, §3, §4, §5, §6, §7, §8, §9, §10

[7] = tested on: Pseudomonas aeruginosa NCTC 10662; experiment: MIC, agar dilution (BSAC guidelines); format: cell-based; conditions: NCTC10662, Table 2, P. aeruginosa NCTC 10662, read-out: Minimum inhibitory concentration (MIC)
Procedure: as §1, §2, §3, §4, §5, §6, §7, §8, §9, §10

[8] = tested on: Staphylococcus epidermidis ATCC 1228; experiment: MIC, agar dilution (BSAC guidelines); format: cell-based; conditions: ATCC1228, Table 2, S. epidermidis ATCC 1228, read-out: Minimum inhibitory concentration (MIC)
Procedure: as §1, §2, §3, §4, §5, §6, §7, §8, §9, §10

[9] = tested on: VISA, strain USA/VISA 5827; experiment: MIC, agar dilution (BSAC guidelines); format: cell-based; conditions: Staphylococcus aureus, Table 2, read-out: Minimum inhibitory concentration (MIC)
Procedure: as §1, §2, §3, §4, §5, §6, §7, §8, §9, §10

[10] = tested on: VISA, strain USA/VISA 5836; experiment: MIC, agar dilution (BSAC guidelines); format: cell-based; conditions: Staphylococcus aureus, Table 2, read-out: Minimum inhibitory concentration (MIC)
Procedure: as §1, §2, §3, §4, §5, §6, §7, §8, §9, §10

[11] = tested on: VISA, strain VISA 3900 UK; experiment: MIC, agar dilution (BSAC guidelines); format: cell-based; conditions: Staphylococcus aureus, Table 2, read-out: Minimum inhibitory concentration (MIC)
Procedure: as §1, §2, §3, §4, §5, §6, §7, §8, §9, §10

[12] = tested on: strains of Staphylococci and Enterococci with reduced susceptibility to vancomycin; experiment: Growth inhibition, summary of MIC testing; format: cell-based; conditions: summary in words
Procedure: as §1, §5, §8, §9, §10

[13] = in vivo; cited from earlier work

| Compound | MIC [1] | MIC [2] | MIC [3] | MIC [4] | MIC [5] | MIC [6] | MIC [7] | MIC [8] | MIC [9] | MIC [10] | MIC [11] | activity against strains of Staphylococci and Enterococci with reduced susceptibility to vancomycin [12] | systemic absorption [13] | topical dose recovered in the urine or faeces [13] |
| --- | --- | --- | --- | --- | --- | --- | --- | --- | --- | --- | --- | --- | --- | --- |
| c1ccc(-c2ccc(C(c3ccccc3)n3ccnc3)cc2)cc1 (centres unmarked) [Bifonazole] | > 128 µg/mL | > 128 µg/mL | > 128 µg/mL | > 128 µg/mL | > 128 µg/mL | > 128 µg/mL | > 128 µg/mL | > 128 µg/mL | > 128 µg/mL | > 128 µg/mL | > 128 µg/mL | did not show this activity | – | – |
| CC(=O)N1CCN(c2ccc(OCC3COC(Cn4ccnc4)(c4ccc(Cl)cc4Cl)O3)cc2)CC1 (centres unmarked) [Ketoconazole] | > 256 µg/mL | 16 µg/mL (≈ 30.1 µM) | 128 µg/mL (≈ 241 µM) | 128 µg/mL (≈ 241 µM) | 128 µg/mL (≈ 241 µM) | > 256 µg/mL | > 256 µg/mL | 64 µg/mL (≈ 120 µM) | 64 µg/mL (≈ 120 µM) | 64 µg/mL (≈ 120 µM) | 64 µg/mL (≈ 120 µM) | did not show this activity | – | – |
| Clc1ccc(COC(Cn2ccnc2)c2ccc(Cl)cc2Cl)cc1 (centres unmarked) [econazole nitrate] | – | – | – | – | – | – | – | – | – | – | – | – | extremely low | Less than 1% |
| OC(Cn1cncn1)(Cn1cncn1)c1ccc(F)cc1F [Fluconazole] | > 128 µg/mL | > 128 µg/mL | > 128 µg/mL | > 128 µg/mL | > 128 µg/mL | > 128 µg/mL | > 128 µg/mL | > 128 µg/mL | > 128 µg/mL | > 128 µg/mL | > 128 µg/mL | did not show this activity | – | – |
